How the values were obtained:
[1] = pH of carboxylic acid mixed with PBS buffer, without tyrosinase; format: physicochemical; settings: 6 mM, in PBS buffer, absence of tyrosinase
B16-F10 cells = assay: Proteomic analysis of B16-F10 cells (DIA mass spectrometry); format: cell-based, mouse
Method: B16-F10 cells were treated with various concentrations of carboxylic acids following the same culture protocol used for melanin inhibition assays. After treatment, the cells were collected and submitted to Shanghai Zhongke Xinming Biotechnology Co., Ltd. (Shanghai, China) for proteomics analysis. The collected cells were lysed with an appropriate volume of SDT lysis buffer (4% SDS, 100 mM Tris-HCl, pH 7.6) to extract proteins. DTT was added to reduce disulfide bonds, followed by incubation at room temperature for 1 h. Subsequently, iodoacetamide was added, and the mixture was reacted in the dark at room temperature for 30 min. The proteins were then digested with trypsin overnight. The resulting peptide fragments were desalted using a C18 cartridge. After freeze-drying, the peptides were resuspended in 40 μL of 0.1% formic acid solution, and the peptide concentration was determined by measuring the absorbance at 280 nm. An appropriate amount of internal reference for targeted proteomics (iRT) standard peptides was added to each sample for data-independent acquisition (DIA) mass spectrometry analysis. Chromatographic separation was performed using a nanoflow Evosep One system. The separated samples were analyzed by DIA mass spectrometry using a timsTOF Pro mass spectrometer (Bruker Daltonics, Bremen, Germany). Detection was conducted in positive-ion mode, with MS and MS/MS scanning ranges set from 100 to 1700 m/z. MS2 data acquisition was performed in DIA mode, with four TIMS scan windows, each accumulating for 100 ms. In PASEF mode, the collision energy varied linearly with ion mobility (1/K0), ranging from 20 to 59 eV for ions with 1/K0 values between 0.85 and 1.30 Vs/cm^2. The DIA data were processed using Spectronaut 19 software with the following parameter settings: retention time prediction type set to dynamic iRT, interference correction on MS2 level enabled, cross-run normalization enabled, maximum missed cleavage sites set to 2, fixed modification set to Carbamidomethyl (C), and variable modifications set to Oxidation (M) and Acetyl (Protein N-term). All results were filtered with a Q-value cutoff of 0.01, corresponding to a false discovery rate (FDR) of less than 1%. The target protein set was annotated using Blast2GO (version BLASTP 2.8.0+). The process included four steps: sequence alignment (Blast), GO mapping, GO annotation, and additional annotation augmentation using InterProScan. Using the KOBAS 3.0 software, KEGG pathway annotation was performed on the target protein set. Fisher’s exact test was employed to compare the distribution of GO categories in the target protein set and the overall protein set, thereby conducting enrichment analysis of the GO annotations in the target protein set. The proteomics dataset generated in this study has been made publicly available through the PRIDE ProteomeXchange Consortium with the dataset identifier PXD061919.

[2] = L-DOPA auto-oxidation analysis
Method: A 5 mM L-DOPA solution was prepared in PBS buffer (pH 7.4). Subsequently, 240 μL of carboxylic acid solution, 360 μL of L-DOPA solution, and 120 μL of PBS buffer were sequentially mixed. The mixture was then incubated at 37 °C for 12 h. […] Deionized water was used as the control. The inhibition of L-DOPA auto-oxidation was calculated using the same method as the melanin content analysis.

O=C(O)C(O)Cc1ccccc1 (stereo not shown) [3-phenyllactic acid]
pH [1]: around 6 | ATP8 protein fold change (B16-F10 cells; 6 mM vs control, Table S1): 0.4618 | Aanat protein fold change (B16-F10 cells; 6 mM vs control, Table S1): 2.208 | Acta1 protein fold change (B16-F10 cells; 6 mM vs control, Table S1): 2.921 | Adgrg1 protein fold change (B16-F10 cells; 6 mM vs control, Table S1): 0.4728 | Agtrap protein fold change (B16-F10 cells; 6 mM vs control, Table S1): 0.4687 | Antxr2 protein fold change (B16-F10 cells; 6 mM vs control, Table S1): 0.4747 | Aplp2 protein fold change (B16-F10 cells; 6 mM vs control, Table S1): 0.2246 | Apob protein fold change (B16-F10 cells; 6 mM vs control, Table S1): 0.4962 | Apoh protein fold change (B16-F10 cells; 6 mM vs control, Table S1): 0.4857 | App protein fold change (B16-F10 cells; 6 mM vs control, Table S1): 0.3729 | Arl6ip1 protein fold change (B16-F10 cells; 6 mM vs control, Table S1): 0.4901 | Bace2 protein fold change (B16-F10 cells; 6 mM vs control, Table S1): 0.4069 | Bcl9 protein fold change (B16-F10 cells; 6 mM vs control, Table S1): 2.336 | Bltp1 protein fold change (B16-F10 cells; 6 mM vs control, Table S1): 2.099 | Bst2 protein fold change (B16-F10 cells; 6 mM vs control, Table S1): 0.3949 | CUB domain-containing protein (Q3TD85) fold change (B16-F10 cells; 6 mM vs control, Table S1): 0.4924 | Cav2 protein fold change (B16-F10 cells; 6 mM vs control, Table S1): 0.4909 | Cdc42se1 protein fold change (B16-F10 cells; 6 mM vs control, Table S1): 0.3683 | Cisd2 protein fold change (B16-F10 cells; 6 mM vs control, Table S1): 0.4369 | Cks2 protein fold change (B16-F10 cells; 6 mM vs control, Table S1): 0.4644 | Ctns protein fold change (B16-F10 cells; 6 mM vs control, Table S1): 0.3087 | Cxne protein fold change (B16-F10 cells; 6 mM vs control, Table S1): 0.3753 | Cyp51a1 protein fold change (B16-F10 cells; 6 mM vs control, Table S1): 0.3449 | Ddit3 protein fold change (B16-F10 cells; 6 mM vs control, Table S1): 2.105 | Dgcr2 protein fold change (B16-F10 cells; 6 mM vs control, Table S1): 0.4147 | Dnajc19 protein fold change (B16-F10 cells; 6 mM vs control, Table S1): 0.3587 | E2f5 protein fold change (B16-F10 cells; 6 mM vs control, Table S1): 2.473 | Eng protein fold change (B16-F10 cells; 6 mM vs control, Table S1): 0.3635 | Entpd7 protein fold change (B16-F10 cells; 6 mM vs control, Table S1): 0.3998 | Epb41l4b protein fold change (B16-F10 cells; 6 mM vs control, Table S1): 2.181 | Fam174b protein fold change (B16-F10 cells; 6 mM vs control, Table S1): 0.4339 | Fau protein fold change (B16-F10 cells; 6 mM vs control, Table S1): 4.21 | Fosl2 protein fold change (B16-F10 cells; 6 mM vs control, Table S1): 5.488 | Fv4 protein fold change (B16-F10 cells; 6 mM vs control, Table S1): 0.4177 | Ginm1 protein fold change (B16-F10 cells; 6 mM vs control, Table S1): 0.3741 | Glmp protein fold change (B16-F10 cells; 6 mM vs control, Table S1): 0.4495 | H1-0 protein fold change (B16-F10 cells; 6 mM vs control, Table S1): 2.057 | H3c14 protein fold change (B16-F10 cells; 6 mM vs control, Table S1): 3.134 | Hbbt1 protein fold change (B16-F10 cells; 6 mM vs control, Table S1): 0.388 | Hmgcs1 protein fold change (B16-F10 cells; 6 mM vs control, Table S1): 0.3916 | Hspa13 protein fold change (B16-F10 cells; 6 mM vs control, Table S1): 0.4084 | Ifi205 protein fold change (B16-F10 cells; 6 mM vs control, Table S1): 2.571 | Ifitm2 protein fold change (B16-F10 cells; 6 mM vs control, Table S1): 0.4697 | Il10rb protein fold change (B16-F10 cells; 6 mM vs control, Table S1): 0.3763 | Itih3 protein fold change (B16-F10 cells; 6 mM vs control, Table S1): 0.3529 | Itm2b protein fold change (B16-F10 cells; 6 mM vs control, Table S1): 0.2428 | Itm2c protein fold change (B16-F10 cells; 6 mM vs control, Table S1): 0.3416 | Kbtbd2 protein fold change (B16-F10 cells; 6 mM vs control, Table S1): 0.4177 | Kcnj13 protein fold change (B16-F10 cells; 6 mM vs control, Table S1): 0.3629 | Laptm4a protein fold change (B16-F10 cells; 6 mM vs control, Table S1): 0.2076 | Laptm4b protein fold change (B16-F10 cells; 6 mM vs control, Table S1): 0.3669 | Ldha protein fold change (B16-F10 cells; 6 mM vs control, Table S1): 2.104 | Ldlr protein fold change (B16-F10 cells; 6 mM vs control, Table S1): 0.4018 | Mast4 protein fold change (B16-F10 cells; 6 mM vs control, Table S1): 2.12 | Met protein fold change (B16-F10 cells; 6 mM vs control, Table S1): 0.4986 | Mfap3 protein fold change (B16-F10 cells; 6 mM vs control, Table S1): 0.4088 | Mlana protein fold change (B16-F10 cells; 6 mM vs control, Table S1): 0.2524 | Mtfr2 protein fold change (B16-F10 cells; 6 mM vs control, Table S1): 0.4374 | Myl6 protein fold change (B16-F10 cells; 6 mM vs control, Table S1): 0.4951 | Ndfip1 protein fold change (B16-F10 cells; 6 mM vs control, Table S1): 0.3294 | Nfatc2 protein fold change (B16-F10 cells; 6 mM vs control, Table S1): 0.2366 | Nrp1 protein fold change (B16-F10 cells; 6 mM vs control, Table S1): 0.4865 | Nrp2 protein fold change (B16-F10 cells; 6 mM vs control, Table S1): 0.3408 | Pacsin2 protein fold change (B16-F10 cells; 6 mM vs control, Table S1): 0.3403 | Phyhd1 protein fold change (B16-F10 cells; 6 mM vs control, Table S1): 2.286 | Pmel protein fold change (B16-F10 cells; 6 mM vs control, Table S1): 0.4916 | Psap protein fold change (B16-F10 cells; 6 mM vs control, Table S1): 0.4703 | Ptprs protein fold change (B16-F10 cells; 6 mM vs control, Table S1): 0.4896 | Rad51ap1 protein fold change (B16-F10 cells; 6 mM vs control, Table S1): 0.4291 | Rnf220 protein fold change (B16-F10 cells; 6 mM vs control, Table S1): 0.4969 | Sdc1 protein fold change (B16-F10 cells; 6 mM vs control, Table S1): 0.244 | Sdcbp protein fold change (B16-F10 cells; 6 mM vs control, Table S1): 0.4883 | Serac1 protein fold change (B16-F10 cells; 6 mM vs control, Table S1): 2.052 | Sfpq protein fold change (B16-F10 cells; 6 mM vs control, Table S1): 2.482 | Sgce protein fold change (B16-F10 cells; 6 mM vs control, Table S1): 0.4392 | Slc2a6 protein fold change (B16-F10 cells; 6 mM vs control, Table S1): 0.4306 | Slc4a2 protein fold change (B16-F10 cells; 6 mM vs control, Table S1): 0.48 | Slc7a1 protein fold change (B16-F10 cells; 6 mM vs control, Table S1): 0.4712 | Slc24a5 protein fold change (B16-F10 cells; 6 mM vs control, Table S1): 0.4286 | Slc35b2 protein fold change (B16-F10 cells; 6 mM vs control, Table S1): 0.3476 | Slc38a2 protein fold change (B16-F10 cells; 6 mM vs control, Table S1): 0.3733 | Slc45a2 protein fold change (B16-F10 cells; 6 mM vs control, Table S1): 0.451 | Sparcl1 protein fold change (B16-F10 cells; 6 mM vs control, Table S1): 0.4926 | Syt4 protein fold change (B16-F10 cells; 6 mM vs control, Table S1): 0.3106 | Tagln2 protein fold change (B16-F10 cells; 6 mM vs control, Table S1): 0.2815 | Tgoln1 protein fold change (B16-F10 cells; 6 mM vs control, Table S1): 0.479 | Tial1 protein fold change (B16-F10 cells; 6 mM vs control, Table S1): 2.492 | Tmed1 protein fold change (B16-F10 cells; 6 mM vs control, Table S1): 0.4801 | Tmem14c protein fold change (B16-F10 cells; 6 mM vs control, Table S1): 4.332 | Tmem59 protein fold change (B16-F10 cells; 6 mM vs control, Table S1): 0.233 | Tmem176a protein fold change (B16-F10 cells; 6 mM vs control, Table S1): 0.2277 | Tmem176b protein fold change (B16-F10 cells; 6 mM vs control, Table S1): 0.171 | Trib3 protein fold change (B16-F10 cells; 6 mM vs control, Table S1): 2.531 | Try10 protein fold change (B16-F10 cells; 6 mM vs control, Table S1): 0.2906 | Tspan3 protein fold change (B16-F10 cells; 6 mM vs control, Table S1): 0.3162 | Tspan10 protein fold change (B16-F10 cells; 6 mM vs control, Table S1): 0.3282 | Tubb4a protein fold change (B16-F10 cells; 6 mM vs control, Table S1): 3.655 | Tyrp1 protein fold change (B16-F10 cells; 6 mM vs control, Table S1): 0.3578 | U2af1l4 protein fold change (B16-F10 cells; 6 mM vs control, Table S1): 2.0208 | Ube2j1 protein fold change (B16-F10 cells; 6 mM vs control, Table S1): 0.3514 | Ubl3 protein fold change (B16-F10 cells; 6 mM vs control, Table S1): 0.2819 | Zbtb3 protein fold change (B16-F10 cells; 6 mM vs control, Table S1): 2.269 | env protein fold change (B16-F10 cells; 6 mM vs control, Table S1): 0.4886 | il6st protein fold change (B16-F10 cells; 6 mM vs control, Table S1): 0.4117 | p53 (Fragment) (A6YM30) protein fold change (B16-F10 cells; 6 mM vs control, Table S1): 3.222 | regulation of MMP9 or PPARG (B16-F10 cells; mouse B16-F10 cells, proteomic analysis): did not significantly downregulate | L-DOPA auto-oxidation inhibition rate ([2]; 1.5 mM): exceeding 80% | IC50 ([2]; 37 °C, 12 h, calculated using SPSS, read-out: IC50 for L-DOPA auto-oxidation inhibition): 630 µM

— paper PMC11990924, “Inhibition of Tyrosinase and Melanogenesis by Carboxylic Acids: Mechanistic Insights and Safety Evaluation” (Molecules, 2025)
